Measured values: patent publication US20120270929A1, “MODULATION OF TTC39 EXPRESSION TO INCREASE HDL” (ISIS Pharmaceuticals, Inc., priority 2009, published 2012)
Oligonucleotides are written 5' to 3', each unit as a sugar letter and its base; * is a phosphorothioate linkage, no mark a phosphodiester; rarer units and linkages stand in square brackets, end groups in braces. Plain capitals give the bases only. e = 2'-O-(2-methoxyethyl) (MOE); [5mC] = 5-methylcytosine; d = 2'-deoxy (DNA)

Assays:
[1] = test system: murine TTC39C mRNA; experiment: Antisense inhibition of mouse TTC39C in mouse primary hepatocytes, single dose; assay type: cell-based; details: 8,000 nM antisense oligonucleotide, electroporation, approximately 24 hours, TTC39C mRNA by real-time PCR (RTS3266), relative to untreated control cells
Procedure: Antisense oligonucleotides were designed targeting a TTC39C nucleic acid and were tested for their effects on TTC39C mRNA in vitro. Cultured mouse primary hepatocytes at a density of 30,000 cells per well were transfected by electroporation with 8,000 nM antisense oligonucleotide. After a treatment period of approximately 24 hours, RNA was isolated from the cells and TTC39C mRNA levels were measured by quantitative real-time PCR. Mouse primer probe set RTS3266 (forward sequence […], designated herein as SEQ ID NO: 140; reverse sequence […], designated herein as SEQ ID NO: 141; probe sequence […], designated herein as SEQ ID NO: 142). TTC39C mRNA levels were adjusted according to total RNA content, as measured by RIBOGREEN®. Results are presented as percent inhibition of TTC39C, relative to untreated control cells.
The chimeric antisense oligonucleotides targeting TTC39C were designed as 5-10-5 MOE gapmers. The gapmers are 20 nucleotides in length, wherein the central gap segment is comprised of ten 2′-deoxynucleotides and is flanked on both sides (in the 5′ and 3′ directions) by wings comprising five nucleotides each. Each nucleotide in the 5′ wing segment and each nucleotide in the 3′ wing segment has a 2′-MOE modification. The internucleoside linkages throughout each gapmer are phosphorothioate (P═S) linkages. All cytosine residues throughout each gapmer are 5-methylcytosines. “Mouse Target start site” indicates the 5′-most nucleotide to which the gapmer is targeted in the mouse gene sequence.

[2] = test system: murine TTC39C mRNA; experiment: Dose-dependent antisense inhibition of murine TTC39C in mouse primary hepatocytes; assay type: cell-based; details: electroporation, ~16 h; for IC50: mouse primary hepatocytes
Summary of the method: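 Mouse primary hepatocytes (30,000/well) electroporated with antisense oligonucleotide at 500, 1,000, 2,000, 4,000 or 8,000 nM and harvested after about 16 h. TTC39C mRNA quantified by RT-qPCR (primer probe set RTS3266), normalised to RIBOGREEN total RNA; percent inhibition versus untreated cells.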

Substance | % inhibition [1] [%] | percent inhibition of TTC39C mRNA ([2]; 500.0 nM) [%] | percent inhibition of TTC39C mRNA ([2]; 1000.0 nM) [%] | percent inhibition of TTC39C mRNA ([2]; 2000.0 nM) [%] | percent inhibition of TTC39C mRNA ([2]; 4000.0 nM) [%] | percent inhibition of TTC39C mRNA ([2]; 8000.0 nM) [%] | IC50 [2] [nM]
ISIS 474601: 5-10-5 MOE gapmer antisense oligonucleotide targeting murine TTC39C (antisense eG*eG*e[5mC]*e[5mC]*eA*dT*dA*dT*d[5mC]*d[5mC]*dA*dA*dA*dG*d[5mC]*eT*e[5mC]*eA*e[5mC]*eA) | 91 | 36 | 49 | 65 | 87 | 92 | 1000
ISIS 474604: 5-10-5 MOE gapmer antisense oligonucleotide targeting murine TTC39C (antisense eT*eG*eT*e[5mC]*eA*d[5mC]*dT*dG*d[5mC]*d[5mC]*dG*dT*d[5mC]*d[5mC]*dA*eA*eA*eG*e[5mC]*eA) | 97 | 43 | 70 | 84 | 88 | 96 | 500
ISIS 474607: 5-10-5 MOE gapmer antisense oligonucleotide targeting murine TTC39C (antisense eT*e[5mC]*eA*eA*eT*d[5mC]*dA*dT*dG*d[5mC]*dT*dG*d[5mC]*dA*d[5mC]*e[5mC]*eA*eG*e[5mC]*e[5mC]) | 98 | 40 | 65 | 85 | 92 | 94 | 500
ISIS 474609: 5-10-5 MOE gapmer antisense oligonucleotide targeting murine TTC39C (antisense e[5mC]*eG*eT*eA*eG*dT*dA*dG*d[5mC]*dA*d[5mC]*dT*dG*dG*dG*eA*e[5mC]*e[5mC]*eA*e[5mC]) | 95 | 48 | 56 | 71 | 90 | 97 | 600
ISIS 474610: 5-10-5 MOE gapmer antisense oligonucleotide targeting murine TTC39C (antisense eT*eT*eA*eA*eG*dA*dA*d[5mC]*dA*dA*dG*dT*dT*dG*dT*eG*e[5mC]*e[5mC]*e[5mC]*e[5mC]) | 90 | 10 | 28 | 38 | 65 | 71 | 2800
ISIS 474613: 5-10-5 MOE gapmer antisense oligonucleotide targeting murine TTC39C (antisense eT*eG*e[5mC]*eT*eT*dT*dA*dA*dT*d[5mC]*d[5mC]*dA*dA*d[5mC]*dG*eA*e[5mC]*eA*eG*eA) | 90 | 30 | 33 | 43 | 65 | 74 | 2100
ISIS 474615: 5-10-5 MOE gapmer antisense oligonucleotide targeting murine TTC39C (antisense eG*eT*eA*e[5mC]*eG*dA*dG*dT*dT*dA*d[5mC]*dT*d[5mC]*dT*dG*e[5mC]*e[5mC]*eG*eA*e[5mC]) | 96 | 33 | 43 | 82 | 92 | 98 | 900
ISIS 474617: 5-10-5 MOE gapmer antisense oligonucleotide targeting murine TTC39C (antisense eA*eG*eT*eT*e[5mC]*d[5mC]*d[5mC]*dT*dT*dA*dG*dG*dG*dA*dG*eG*e[5mC]*e[5mC]*eA*eG) | 94 | 43 | 45 | 80 | 86 | 94 | 800
ISIS 474629: 5-10-5 MOE gapmer antisense oligonucleotide targeting murine TTC39C (antisense eG*eA*eT*e[5mC]*eA*d[5mC]*dT*dG*d[5mC]*d[5mC]*dG*dT*d[5mC]*d[5mC]*dA*eA*eA*eG*e[5mC]*eA) | 93 | 16 | 28 | 42 | 48 | 66 | 3600
ISIS 474662: 5-10-5 MOE gapmer antisense oligonucleotide targeting murine TTC39C (antisense eG*eG*eA*eT*eT*dT*d[5mC]*d[5mC]*dG*dG*dG*d[5mC]*dA*dT*d[5mC]*eA*eA*e[5mC]*e[5mC]*eT) | 95 | 28 | 35 | 65 | 88 | 94 | 1300
ISIS 474666: 5-10-5 MOE gapmer antisense oligonucleotide targeting murine TTC39C (antisense e[5mC]*eA*eA*eT*e[5mC]*dA*dT*dG*d[5mC]*dT*dG*d[5mC]*dA*d[5mC]*d[5mC]*eA*eG*e[5mC]*e[5mC]*eT) | 95 | 35 | 54 | 79 | 92 | 95 | 800
